Measured values: the Deep4Chem optical property database
“And” between values parts separate entries of the source, which are not always exact repeats. Identical values can stand only once. One block for each molecule: values may come before it.

Assay: photoluminescence quantum yield (fraction); solvent given as SMILES

SMILES: CCCCOC(=O)c1cc(Oc2ccc(OC)cc2)c2c3c(Cl)cc4c5c(cc(Cl)c(c6c(Oc7ccc(OC)cc7)cc(C(=O)OCCCC)c1c26)c53)C(=O)N(c1c(C(C)C)cccc1C(C)C)C4=O
photoluminescence quantum yield (in Cc1ccccc1): 0.55

photoluminescence quantum yield (in CO): 0.023
photoluminescence quantum yield (in ClC(Cl)Cl): 0.02
SMILES: Cc1nc2c(ccc3c2sc(/C=C/c2ccc(N(CCO)CCO)cc2)[n+]3C)s1

photoluminescence quantum yield (in CCO): 0.95
SMILES: OCc1ccc2c3cccc4cccc(c5cccc1c52)c43

SMILES: O=S(=O)(c1ccccc1)c1ccc(-n2c3ccccc3c3c2c2ccccc2n3-c2ccccc2)cc1
photoluminescence quantum yield (in Cc1ccccc1): 0.195

photoluminescence quantum yield (in CC#N): 0.062
SMILES: COc1ccc(-c2csc(/C(C#N)=C/c3ccccc3Cl)n2)cc1

photoluminescence quantum yield (in C1CCOC1): 0.078
photoluminescence quantum yield (in ClC(Cl)Cl): 0.037
SMILES: CCCCCCCCc1ccc(-c2c3cc(-c4cc(CCCCCCCC)c(-c5ccc(-c6sc(/C=C7\SC(SCC)=NC7=O)cc6CCCCCCCC)s5)s4)sc3c(-c3ccc(CCCCCCCC)s3)c3cc(-c4cc(CCCCCCCC)c(-c5ccc(-c6sc(/C=C7\SC(SCC)=NC7=O)cc6CCCCCCCC)s5)s4)sc23)s1

photoluminescence quantum yield (in ClCCl): 0.114
SMILES: Cc1cc2c3ccccc3n(C)c2c2c1c1ccccc1n2C

SMILES: CC1(C)c2ccccc2N(c2ccc(-c3nc4c(C#N)ccc(C#N)c4nc3-c3ccc(N4c5ccccc5C(C)(C)c5ccccc54)cc3)cc2)c2ccccc21
photoluminescence quantum yield (in Cc1ccccc1): 0.72

photoluminescence quantum yield (in C1CCOC1): 0.23
SMILES: O=P1(c2ccccc2)C(c2cccs2)=Cc2ccccc21 (stereo unspecified)

photoluminescence quantum yield (in CC(C)(C)O): 0.13
photoluminescence quantum yield (in CC(C)CO): 0.2
photoluminescence quantum yield (in CC(C)O): 0.2
photoluminescence quantum yield (in CCCCO): 0.22
photoluminescence quantum yield (in CCCO): 0.23
photoluminescence quantum yield (in CCO): 0.2
photoluminescence quantum yield (in CN(C)C=O): 0.02
photoluminescence quantum yield (in CNC=O): 0.14
photoluminescence quantum yield (in CO): 0.25
photoluminescence quantum yield (in NC=O): 0.43
photoluminescence quantum yield (in O): 0.11
SMILES: COCCOCCOCCOc1ccc(OCCOCCOCCOC)c(C=O)c1

photoluminescence quantum yield (in O): 0.009
SMILES: COc1cc(C(=O)O)cc(OC)c1O

photoluminescence quantum yield (in C1CCOC1): 0.65
SMILES: c1cc2c3c(c1)-c1cccc4ccn(c14)B3n1ccc3cccc-2c31

SMILES: CCC1(CC)c2cc(/C=C/c3cc(C#N)c(/C=C/c4ccc5c(c4)C(CC)(CC)c4cc(N6c7ccccc7Sc7ccccc76)ccc4-5)cc3C#N)ccc2-c2ccc(N3c4ccccc4Sc4ccccc43)cc21
photoluminescence quantum yield (in C1CCOC1): 0.01
photoluminescence quantum yield (in CCCCCC): 0.11
photoluminescence quantum yield (in Cc1ccccc1): 0.06
photoluminescence quantum yield (in ClCCl): 0.01

SMILES: CCCCCCN(c1ccccc1)c1ccc2c(c1)C(CC)(CC)c1cc(/C=C/c3ccc(/C=C(\C#N)C(=O)O)s3)ccc1-2
photoluminescence quantum yield (in C1CCOC1): 0.458
photoluminescence quantum yield (in C1COCCO1): 0.813
photoluminescence quantum yield (in CC#N): 0.105
photoluminescence quantum yield (in CC(C)=O): 0.251
photoluminescence quantum yield (in CCOC(C)=O): 0.443
photoluminescence quantum yield (in CN(C)C=O): 0.638
photoluminescence quantum yield (in CS(C)=O): 0.322
photoluminescence quantum yield (in ClCCl): 0.047

photoluminescence quantum yield (in CS(C)=O): 0.045
SMILES: Cc1ccc(C2C(C#N)=C(N)n3c(=O)c4ccccc4c(=O)n32)cc1 (stereo unspecified)

photoluminescence quantum yield (in CC#N): 0.42
photoluminescence quantum yield (in CCCCCC): 0.55
photoluminescence quantum yield (in CCOC(C)=O): 0.44
photoluminescence quantum yield (in CO): 0.5
photoluminescence quantum yield (in ClCCl): 0.52
SMILES: F[B-]1(F)n2c(NCc3ccccc3)ccc2C(c2c(Cl)cccc2Cl)=C2C=CC(NCc3ccccc3)=[N+]21

photoluminescence quantum yield (in CC#N): 0.47
photoluminescence quantum yield (in CCCCCC): 0.31
SMILES: c1ccc2c(c1)[nH]c1ncccc12

photoluminescence quantum yield (in C1COCCO1): 0.06
photoluminescence quantum yield (in CC#N): 0.034
photoluminescence quantum yield (in CO): 0.047
photoluminescence quantum yield (in O): 0.035
SMILES: O=c1[nH]c(=O)n([C@@H]2O[C@H](CO)[C@@H](O)[C@H]2O)cc1-c1cc2ccccc2s1

photoluminescence quantum yield (in ClCCl): 0.26
SMILES: C(#Cc1cc(C#Cc2ccccc2)c(C#Cc2ccccc2)c(C#Cc2ccccc2)c1C#Cc1ccccc1)c1ccccc1

photoluminescence quantum yield (in CC1CCCO1): 0.35
SMILES: O=c1cc2cc(O)c3cccc4ccc(o1)c2c43

photoluminescence quantum yield (in CC#N): 0.1
SMILES: CN1/C(=C\C=C\C2=C3C=CC(c4ccccc4)=[N+]3[B-](F)(F)n3c2ccc3-c2ccccc2)Sc2ccccc21

photoluminescence quantum yield (in ClC(Cl)Cl): 0.32 and 0.25
SMILES: C(#Cc1cccs1)C(C#Cc1cccs1)=Cc1ccc(C=C(C#Cc2cccs2)C#Cc2cccs2)cc1

SMILES: CN(C)c1ccc(C#Cc2ccccc2)cc1
photoluminescence quantum yield (in C1CCCCC1): 0.35
photoluminescence quantum yield (in C1CCOC1): 0.244
photoluminescence quantum yield (in C1COCCO1): 0.32
photoluminescence quantum yield (in CC1CCCO1): 0.314
photoluminescence quantum yield (in CC#N): 0.102
photoluminescence quantum yield (in CC(C)=O): 0.103
photoluminescence quantum yield (in CC(C)CC(C)(C)C): 0.28
photoluminescence quantum yield (in CC(C)O): 0.011
photoluminescence quantum yield (in CCCCCCCCCCCCCCCC): 0.372
photoluminescence quantum yield (in CCCCCCCCCCCCCCCCCl): 0.409
photoluminescence quantum yield (in CCOC(C)=O): 0.25
photoluminescence quantum yield (in CCOCC): 0.11
photoluminescence quantum yield (in CN(C)C=O): 0.3
photoluminescence quantum yield (in CO): 0.01
photoluminescence quantum yield (in CS(C)=O): 0.29
photoluminescence quantum yield (in Cc1ccccc1): 0.39

photoluminescence quantum yield (in ClCCl): 0.13
SMILES: CCCCCC(=O)c1cccc2sc3c(c12)P(=O)(c1ccccc1)c1ccccc1-3 (stereo unspecified)

SMILES: CCCCCCCCN(CCCCCCCC)c1ccc(/C=C/c2ccc(C#Cc3ccc(-c4ccc(C#Cc5ccc(/C=C/c6ccc(N(CCCCCCCC)CCCCCCCC)cc6)cc5)cc4)cc3)cc2)cc1
photoluminescence quantum yield (in Cc1ccccc1): 0.5

photoluminescence quantum yield (in ClC(Cl)Cl): 0.08 and 0.07
SMILES: COc1ccccc1C1=[N+]2C(=C(c3ccc(I)cc3)c3ccc(-c4ccccc4OC)n3[B-]2(F)F)C=C1

SMILES: Oc1ccccc1-c1nc2c3ccccc3c3ccccc3c2o1
photoluminescence quantum yield (in Cc1ccccc1): 0.003

photoluminescence quantum yield (in O): 0.022
SMILES: [NH3+]C(Cc1ccccc1)C(=O)[O-] (stereo unspecified)

photoluminescence quantum yield (in ClCCl): 0.00053
SMILES: COc1cc2c(cc1OC)C1=C[C@H](c3ccc(C)cc3)C3(C(C#N)=C(C#N)N1CC2)c1cc(Cl)ccc1-c1ccc(Cl)cc13

photoluminescence quantum yield (in C1CCOC1): 0.0134
photoluminescence quantum yield (in CC#N): 0.0205
photoluminescence quantum yield (in CCCCO): 0.0071
photoluminescence quantum yield (in O): 0.002
photoluminescence quantum yield (in c1ccccc1): 0.0112
SMILES: CN(C)c1ccc(/C=C/C(=O)O)cc1

photoluminescence quantum yield (in CN(C)C=O): 0.056
photoluminescence quantum yield (in O): 0.622
SMILES: CC[N+]1(CC)CN2C(C)=CC(C)=C(C(=O)O)C2=N1

photoluminescence quantum yield (in c1cc(-c2cccc(-n3c4ccccc4c4ccccc43)c2)cc(-n2c3ccccc3c3ccccc32)c1): 0.84
SMILES: CC1(C)c2ccccc2N(c2ccc3c(c2)c2cc(N4c5ccccc5C(C)(C)c5ccccc54)ccc2c2nc4ccccc4nc32)c2ccccc21

photoluminescence quantum yield (in ClCCl): 0.022
SMILES: Cc1cn2cc(-c3ccc([N+](=O)[O-])cc3)[n-][n+]2c1

photoluminescence quantum yield (in CCO): 0.46
SMILES: c1ccc(-n2c3ccccc3c3ccccc32)cc1

photoluminescence quantum yield (in ClCCl): 0.94
SMILES: c1ccc(-c2ccc3c4ccc(-c5ccccc5)c5c(-c6ccccc6)ccc(c6cccc2c63)c54)cc1

photoluminescence quantum yield (in CC#N): 0.12
SMILES: Oc1ccc2ccccc2c1/C=N/CC/N=C/c1c(O)ccc2ccccc12

photoluminescence quantum yield (in ClC(Cl)Cl): 0.83
SMILES: CCCCCCCCOc1ccc(-c2c3c4n(c(-c5ccc(OCCCCCCCC)cc5)c3c3n2[B-](F)(F)[n+]2c(ccc5ccccc52)N=3)[B-](F)(F)[n+]2c(ccc3ccccc32)N=4)cc1

photoluminescence quantum yield (in CO): 0.82
photoluminescence quantum yield (in CS(C)=O): 1
photoluminescence quantum yield (in ClC(Cl)Cl): 0.95
photoluminescence quantum yield (in c1ccccc1): 1
SMILES: CCC1=C(C)C(=O)n2c1cc1c(CCC(=O)OC)c(C)c(C)n1c2=O

photoluminescence quantum yield (in ClC(Cl)Cl): 0.099
SMILES: FC(F)(F)c1ccc2oc3nc4oc5ccc(N(c6ccccc6)c6ccccc6)cc5c4cc3c2c1

photoluminescence quantum yield (in C1CCCCC1): 0.91
SMILES: CCCC1(CCC)c2ccccc2-c2ccc(-c3ccc4c(c3)C(CCC)(CCC)c3cc(-c5ccc6c(c5)C(CCC)(CCC)c5ccccc5-6)ccc3-4)cc21

photoluminescence quantum yield (in C1CCCCC1): 0.012
photoluminescence quantum yield (in CC#N): 0.008
SMILES: CN(C)c1ccc(/C=C/c2nc3c(ccc4ccccc43)s2)cc1

photoluminescence quantum yield (in ClCCCl): 0.016
SMILES: N#Cc1ccc2nc3c(=O)[nH]c(=O)[nH]c3nc2c1
